The values that follow are results of earlier work, collected in paper PMC11674187, “Inhibitory Effects of Cenobamate on Multiple Human Cardiac Ion Channels and Possible Arrhythmogenic Consequences” (Biomolecules, 2024).

By IC50 is commonly meant the concentration at which inhibition is half-maximal.

The first data set relates to human ventricular cardiomyocyte electrophysiology model. Set-up: method as in ref [18] Dutta et al., 2017. To be noted: 12-compound CiPA training set; ref [18] Dutta et al., 2017; cited from earlier work.
For `C=C[C@H]1C[N@@]2CC[C@H]1C[C@@H]2[C@@H](O)c1ccnc2ccc(OC)cc12` [quinidine], the “CiPA torsadogenic risk category” value is recorded as “high risk”.

For `Cc1cccc(C)c1OCC(C)N` (stereo not shown) [mexiletine], the “CiPA torsadogenic risk category” value is “low risk”.

As to `COc1cc(N)c(Cl)cc1C(=O)NC1CCN(CCCOc2ccc(F)cc2)CC1OC` (stereo not shown) [cisapride], the “CiPA torsadogenic risk category” value is listed as “intermediate risk”.

`COc1ccccc1OCC(O)CN1CCN(CC(=O)Nc2c(C)cccc2C)CC1` (stereo not shown) [ranolazine]: the “CiPA torsadogenic risk category” value is on record as “low risk”.

With `Cc1nccn1CC1CCc2c(c3ccccc3n2C)C1=O` (stereo not shown) [ondansetron], the “CiPA torsadogenic risk category” value is on record as “intermediate risk”.

In the case of `CN(C)CCCN1c2ccccc2Sc2ccc(Cl)cc21` [chlorpromazine], the “CiPA torsadogenic risk category” value is on record as “intermediate risk”.

Consider `CN(CCOc1ccc(NS(C)(=O)=O)cc1)CCc1ccc(NS(C)(=O)=O)cc1` [dofetilide], for which the “CiPA torsadogenic risk category” value is recorded as “high risk”.

As to `CC(C)COCC(CN(Cc1ccccc1)c1ccccc1)N1CCCC1` (stereo not shown) [bepridil], the “CiPA torsadogenic risk category” value is on record as “high risk”.

The subject of a further data set is persistent INa. More on the design: method as in ref [5] p. 8. To be noted: other antiseizure drugs; ref [5] p. 8; cited from earlier work.
In the case of `Nc1nnc(-c2cccc(Cl)c2Cl)c(N)n1` [lamotrigine], the IC50 is 119 µM.

For `NC(=O)N1c2ccccc2C=Cc2ccccc21` [carbamazepine], the IC50 is 79.2 µM.

Turning to `Nc1nc2ccc(OC(F)(F)F)cc2s1` [riluzole], the IC50 is 2 µM.

The target in another data set is Nav1.5 (Homo sapiens, UniProt Q14524). Set-up: method as in PMID 34785211, PMID 33620150. To be noted: PT 35–37 °C vs. room temperature; ref [11],[40]; cited from earlier work.
Nav1.5, sequence (Q14524 whole entry): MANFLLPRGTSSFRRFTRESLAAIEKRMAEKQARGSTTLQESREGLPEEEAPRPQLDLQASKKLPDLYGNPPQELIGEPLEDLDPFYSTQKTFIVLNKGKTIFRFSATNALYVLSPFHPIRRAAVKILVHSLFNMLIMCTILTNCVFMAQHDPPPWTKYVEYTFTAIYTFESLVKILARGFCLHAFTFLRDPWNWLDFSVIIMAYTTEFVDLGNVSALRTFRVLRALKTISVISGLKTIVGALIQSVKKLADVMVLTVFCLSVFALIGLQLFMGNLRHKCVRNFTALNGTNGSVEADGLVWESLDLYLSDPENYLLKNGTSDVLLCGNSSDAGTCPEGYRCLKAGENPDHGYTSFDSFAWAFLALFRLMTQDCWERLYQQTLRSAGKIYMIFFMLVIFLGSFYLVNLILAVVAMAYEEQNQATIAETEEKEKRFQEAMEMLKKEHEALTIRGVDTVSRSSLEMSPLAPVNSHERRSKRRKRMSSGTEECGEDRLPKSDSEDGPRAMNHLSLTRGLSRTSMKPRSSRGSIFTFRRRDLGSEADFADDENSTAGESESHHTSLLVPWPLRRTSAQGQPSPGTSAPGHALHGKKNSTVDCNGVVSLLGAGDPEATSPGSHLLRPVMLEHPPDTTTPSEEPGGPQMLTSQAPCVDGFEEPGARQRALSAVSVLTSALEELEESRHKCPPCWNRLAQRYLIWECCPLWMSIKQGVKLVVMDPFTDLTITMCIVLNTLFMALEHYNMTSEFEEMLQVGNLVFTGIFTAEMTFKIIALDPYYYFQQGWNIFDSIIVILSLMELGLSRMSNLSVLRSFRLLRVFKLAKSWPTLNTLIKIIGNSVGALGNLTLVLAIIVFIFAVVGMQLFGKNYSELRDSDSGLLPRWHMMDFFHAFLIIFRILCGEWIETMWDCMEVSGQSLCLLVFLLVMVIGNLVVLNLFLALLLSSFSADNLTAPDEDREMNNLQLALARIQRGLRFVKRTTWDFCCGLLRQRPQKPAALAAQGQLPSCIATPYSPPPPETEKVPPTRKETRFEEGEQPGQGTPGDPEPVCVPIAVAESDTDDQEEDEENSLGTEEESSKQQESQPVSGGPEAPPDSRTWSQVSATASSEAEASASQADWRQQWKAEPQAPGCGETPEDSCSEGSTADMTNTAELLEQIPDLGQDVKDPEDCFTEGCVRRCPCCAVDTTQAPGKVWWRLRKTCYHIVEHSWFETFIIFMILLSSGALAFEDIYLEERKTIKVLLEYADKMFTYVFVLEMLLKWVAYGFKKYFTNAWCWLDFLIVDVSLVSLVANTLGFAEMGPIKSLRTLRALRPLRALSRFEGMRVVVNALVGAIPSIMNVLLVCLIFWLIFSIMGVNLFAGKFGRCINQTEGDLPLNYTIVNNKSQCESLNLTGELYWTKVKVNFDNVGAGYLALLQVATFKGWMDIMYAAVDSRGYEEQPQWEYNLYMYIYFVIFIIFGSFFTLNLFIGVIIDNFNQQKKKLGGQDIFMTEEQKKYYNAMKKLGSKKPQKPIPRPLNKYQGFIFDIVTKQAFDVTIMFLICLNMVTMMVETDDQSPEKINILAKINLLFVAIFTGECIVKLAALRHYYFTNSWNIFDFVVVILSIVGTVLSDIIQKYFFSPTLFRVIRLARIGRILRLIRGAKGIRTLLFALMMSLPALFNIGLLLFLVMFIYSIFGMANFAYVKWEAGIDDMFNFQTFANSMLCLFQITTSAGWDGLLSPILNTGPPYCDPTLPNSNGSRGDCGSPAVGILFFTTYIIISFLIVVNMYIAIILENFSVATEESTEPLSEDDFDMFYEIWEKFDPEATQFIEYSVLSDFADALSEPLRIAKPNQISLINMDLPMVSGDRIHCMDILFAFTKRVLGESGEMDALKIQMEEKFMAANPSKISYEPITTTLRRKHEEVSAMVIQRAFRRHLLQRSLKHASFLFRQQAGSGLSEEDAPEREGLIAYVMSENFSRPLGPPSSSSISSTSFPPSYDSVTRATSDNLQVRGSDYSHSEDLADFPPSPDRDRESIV
As for `CCN(CCO)CCCC(C)Nc1ccnc2cc(Cl)ccc12` (stereo not shown) [hydroxychloroquine], the “change of apparent IC50 on peak Na+ current at physiological vs. room temperature” value is listed as “more than a two-fold reduction”.

On to `CCN(CC)CCCC(C)Nc1ccnc2cc(Cl)ccc12` (stereo not shown) [chloroquine], for which the “change of apparent IC50 on peak Na+ current at physiological vs. room temperature” value was “approximately four-fold reduction”.
